pIC50: −log10 of the molar value. Where two headings read alike, the source gives them in different places.
Legend:
[1] = system: HUVEC cells; test: HUVEC BrdU incorporation, VEGF stimulation; assay type: cell-based; conditions: Homo sapiens, 20 ng/ml VEGF, 72 hrs, read-out: Inhibition of BrdU incorporation in HUVEC cells, VEGF stimulation, IC50
Excerpt: (§1) An assay to measure this effect involves measurement of the inhibition of bromo-deoxy uridine (BrdU) incorporation (evidence of DNA synthesis) in human umbilical vein endothelial cells (HUVECs).
(§2) HUVEC cells and EGM (Endothelial cell growth medium) were purchased from Clonetics (San Diego, CA). VEGF and bFGF were purchased from Genzyme. M199 medium (Gibco BRL) with BSA (Sigma) was used for cell culture in Type I collagen coated plates (Becton Dickinson). The degree of BrdU incorporation was measured using a commercial colorimetric ELISA assay from Boehringer Mannheim.
(§3) HUVECs were plated at a density of 2500 cells per well in M199 medium containing 5% FBS (Hyclone) in a Type-1 Collagen coated plate. The plate was incubated at 37° C. overnight. The medium was removed by aspiration, and test compounds were added to each well in a volume of 0.1 ml per well in serum-free M199 medium. […] The plate was incubated for 30 min at 37° C. Another 0.1 ml of serum-free M199 medium containing BSA and VEGF (or bFGF) was added to give a final concentration of 0.1% BSA and 20 ng/ml VEGF (0.3 ng/ml bFGF). The plate was incubated at 37° C. for 72 hrs. BrdU was added to each well after the first 48 hrs to give a concentration of 10 micomolar. The colorimetric ELISA assay was performed according to manufacturer's instructions, with detection by absorbance reading at 450 nm.

[2] = biological target: T1, c-fms (Homo sapiens, UniProt P07333); test: c-fms protein kinase assay; assay type: biochemical; conditions: read-out: c-fms kinase inhibition IC50
T1 construct: The c-fms intracellular domain was expressed from a baculovirus expression system, as an amino-terminal GST fusion protein; GST (N); made in house
T1 sequence (P07333 539-972 limits assumed): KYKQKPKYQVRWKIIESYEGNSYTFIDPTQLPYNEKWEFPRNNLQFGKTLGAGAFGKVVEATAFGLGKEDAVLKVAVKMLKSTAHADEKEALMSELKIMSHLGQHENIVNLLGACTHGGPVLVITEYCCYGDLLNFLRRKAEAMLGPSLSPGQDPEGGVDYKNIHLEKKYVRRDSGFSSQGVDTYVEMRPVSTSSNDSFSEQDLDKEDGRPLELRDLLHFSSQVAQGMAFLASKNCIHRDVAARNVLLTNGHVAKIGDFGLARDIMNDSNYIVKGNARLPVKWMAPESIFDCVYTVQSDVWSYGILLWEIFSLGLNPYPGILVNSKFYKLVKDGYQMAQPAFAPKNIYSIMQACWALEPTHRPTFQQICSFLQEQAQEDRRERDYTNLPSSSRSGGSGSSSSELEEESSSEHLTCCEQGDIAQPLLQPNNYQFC
Method: c-fms protein kinase assays utilized the peptide substrate, biotin-EAl[…]-NH2, as the phosphoryl group acceptor. The c-fms intracellular domain was expressed from a baculovirus expression system, as an amino-terminal GST fusion protein, and purified to homogeneity using Glutathione agarose from Sigma Chemical Co. Maximum activation of the enzyme was achieved by preactivation at room temperature for 120 min in the presence of 100 μM ATP and 15 mM MgCl2. This enzyme stock was diluted to 150 nM prior to using in the assay. Typically assays were performed in white, opaque, 96-well plates in a 45 ul assay volume including 15 ul 6% DMSO, with or without compounds, 15 ul of the preactivated, diluted enzyme, and 15 ul of a substrate mixture. Reactions contained 50 mM HEPES, pH 7.5, 1.7 μM ATP, 15 mM MgCl2, […] peptide, 2.5 μM DTT, 50 mM NaCl and 0.15 uCi/assay [^32P]ATP. The controls were reactions in the presence (negative controls) or absence (positive controls) of 50 mM EDTA. Reactions were allowed to proceed for 90 min at room temperature. The reaction products were quantified using Scintillation Proximity technolgy. The reactions were quenched by the addition of 200 ul of a solution containing 0.3 mg streptavidin SPA beads from Amersham, 50 mM EDTA, 0.1% TX-100, 50 uM ATP, in PBS, pH7.2 (phosphate buffered solution). Plates were sealed and counted in a Packard Topcount scintillation counter. IC50 values were obtained by fitting raw data to the equation y=Vmax*(1−(x/(k+x))).

[3] = biological target: T2, VEGFR-2 (Homo sapiens, UniProt P35968); test: VEGFR-2 substrate phosphorylation assay; assay type: biochemical
T2 construct: The kinase domain of the enzyme was purified to homogeneity from a baculovirus expression system; made in house
T2 sequence (P35968 834-1162 limits assumed, species assumed): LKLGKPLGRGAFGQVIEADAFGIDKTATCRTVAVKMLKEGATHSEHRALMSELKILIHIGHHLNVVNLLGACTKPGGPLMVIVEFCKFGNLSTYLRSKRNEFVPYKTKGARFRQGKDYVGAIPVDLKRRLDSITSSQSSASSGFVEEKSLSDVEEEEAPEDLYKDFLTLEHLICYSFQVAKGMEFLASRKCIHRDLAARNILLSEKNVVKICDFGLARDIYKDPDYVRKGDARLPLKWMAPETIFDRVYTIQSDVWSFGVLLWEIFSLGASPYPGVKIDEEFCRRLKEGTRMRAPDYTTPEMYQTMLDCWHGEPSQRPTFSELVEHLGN
Method: Substrate phosphorylation assays were carried out as follows:
The kinase domain of the enzyme was purified to homogeneity from a baculovirus expression system. The enzyme was preactivated on ice for 15 min in the presence of 100 μM ATP and 20 mM MgCl2, and stored at −80° C. until needed for assay. The activated enzyme was diluted to 0.4 nM into a 60 μl reaction containing 100 mM HEPES, pH 7.5, 5 μM ATP, 10 mM MgCl2, 5 μM peptide, 0.1 mM DTT, 0.05 mg/ml BSA, and an inhibitor at varying concentrations. The controls were reactions in the presence (negative controls) or absence (positive controls) of 50 mM EDTA. Reactions were incubated for 30 min at room temperature, and then quenched by the addition of EDTA to 60 mM in 210 μl . The quenched samples (190 μl) were transferred to a neutravidin-coated plate (Pierce) and incubated at room temperature for 40 min to allow biotinylated peptide to bind to the neutravidin. The unbound components of the reaction were removed by washing with a plate washer, then 200 μl HRP-PY20 anti-phosphotyrosine antibody conjugate was added to each well. After incubation for 40 min, the plate was washed to remove any unbound anitbody. A HRP substrate, K-blue (Neogen) was added and the reaction was quenched with Red Stop (Neogen) after 20 min. The absorbance of the wells was read at A650 in a plate reader. IC50 values were obtained by fitting raw data to A650=VMAX*(1−[I]/IC50+[I])))+b, where b is background.

[4] = system: HUVEC cells; test: HUVEC BrdU incorporation, bFGF stimulation; assay type: cell-based; conditions: Homo sapiens, 0.3 ng/ml bFGF, 72 hrs, read-out: Inhibition of BrdU incorporation in HUVEC cells, BFGF Stimulation, IC50
Excerpt: as §1, §2, §3

[5] = biological target: T3, CDK2 (Homo sapiens, UniProt P24941); test: CDK2 cyclin dependent protein kinase assay; assay type: biochemical; conditions: read-out: CDK2 kinase inhibition IC50
T3 construct: made in house
Method: Cyclin dependent protein kinase assays utilized the peptides Biotin-aminohexyl-[…] and Biotin-aminohexyl-[…]-NH2 as phosphoryl group acceptors. CDK1 and CDK2 were both expressed utilizing a baculovirus expression system and were partially purified to comprise 20-80% of total protein, with no detectable competing reactions present. Typically, assays were performed by incubating either enzyme (0.2-10 nM), with and without inhibitor, one of the two peptide substrates ([…]), [γ-^32P]ATP ([…]), and 10-20 mM Mg^2+ for periods of time generally within the range 10-120 min. Reactions were terminated with 0.2-2 volumes of either 20% acetic acid or 50-100 mM EDTA buffered to pH 7 (substrate consumption<20%). The buffer employed in enzyme assays was either 30 mM HEPES 7.4 containing 0.15 M NaCl and 5% DMSO, the buffer 50 mM MOPS 7.0 containing 0.15 M NaCl and 5% DMSO, or the buffer 100 mM HEPES pH 7.5 containing 0.1 mg/mL BSA and 5% DMSO. Inhibitors were diluted in 100% DMSO prior to addition into the assay. Detection of peptide phosphorylation was accomplished by scintillation counting following either collection of peptide onto phosphocellulose filters (for reactions stopped with acetic acid), collection of peptide in wells of 96 well plates coated with Streptavidin (Pierce) (reactions were stopped with EDTA), or addition of Avidin coated Scintillant impregnated beads (Scintillation Proximity Assays from Amersham, reactions were stopped with EDTA).

[6] = biological target: T4, Tie-2 (Homo sapiens, UniProt Q02763); test: Tie-2 substrate phosphorylation assay; assay type: biochemical
T4 construct: The kinase domain of the enzyme was purified to homogeneity from a baculovirus expression system; made in house
T4 sequence (Q02763 824-1096 limits assumed, species assumed): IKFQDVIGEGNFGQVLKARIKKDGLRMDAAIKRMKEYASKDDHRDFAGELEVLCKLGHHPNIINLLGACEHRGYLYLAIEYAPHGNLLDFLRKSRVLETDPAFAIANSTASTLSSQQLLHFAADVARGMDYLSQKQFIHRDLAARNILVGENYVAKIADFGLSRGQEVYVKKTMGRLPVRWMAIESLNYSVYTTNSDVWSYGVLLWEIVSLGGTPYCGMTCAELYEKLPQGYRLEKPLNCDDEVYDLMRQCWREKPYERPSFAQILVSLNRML
Method: The peptide substrate used in the Tie-2 assay was biotin-aminohexyl-[sequence]amide. The kinase domain of the enzyme was purified to homogeneity from a baculovirus expression system. The enzyme was diluted to 10 nM into a 60 μl reaction containing 100 mM HEPES, pH 7.5, 500 μM ATP, 10 mM MgCl2, 2 μM peptide, 1 mM DTT, 0.05 mg/ml BSA, and an inhibitor at varying concentrations. The controls were reactions in the presence (negative controls) or absence (positive controls) of 50 mM EDTA. Reactions were incubated for 30 min at room temperature, and then quenched by stopped by 80 μl, of 0.15 M EDTA. […] The neutravidin plates were then washed with water for 5 times. Europium conjugated anti-phosphotyrosine antibody, (EG & G Wallac, #CR04-100) (1 mg/ml) was diluted 1:10,000 in 1%BSA-0.05% Tween 20-TBS, and 150 μl of the diluted antibody was added to each well of the neutravidin plate, so the phosphorylated peptide was bound with the Europium labelled antibody. After another 30-60 min incubation at room temperature, the plates were washed again with water for 5 times. 150 ul of Enhancemant solution was then added to each well, dissociating Eu^3+ from solid phase bound antibodies to form a homogeneous and highly fluorescent Eu-(2-NTA)3(TOPO)2-3 micellar chelate solution.
The kinase activity of all wells was calculated as %S, the percentage of the fluorescent counts vs. positive controls after substraction of negative controls, as in eq.
Plots of compound concentration versus %S were constructed.
%S=%Smax*(1−(X/(K+X)))+Y2 (2)

[7] = read-out: Tie-2 kinase inhibition IC50
[8] = read-out: VEGFR2 kinase inhibition IC50

Compound | pIC50 [1] | pIC50 [2] | pIC50 [3] | pIC50 [4] | pIC50 [5] | pIC50 [6, 7] | pIC50 [3, 8] | pIC50 [6]
NC(=O)c1ccc(N/C=C2\C(=O)Nc3ccc4ncsc4c32)cc1 [Example 24, 4-{[(Z)-(7-Oxo-6,7-dihydro-8H-[1,3]thiazolo[5,4-e]indol-8-ylidene)methyl]amino}benzamide] | 6.30 to 8.00 | < 7.00 | 7.30 to 7.96 | < 5.30 | 7.00 to 7.29 | < 7.00 | – | –
O=C1Nc2ccc3ncccc3c2/C1=C/Nc1ccc(N2CCOCC2)cc1 [Example 29, 1-{(Z)-[4-(4-Morpholinyl)anilino]methylidene}-1,3-dihydro-2H-pyrrolo[3,2-f]quinolin-2-one] | 6.30 to 8.00 | < 7.00 | – | < 5.30 | < 7.00 | < 7.00 | 7.30 to 7.96 | –
O=C1Nc2ccc3ncccc3c2/C1=C/Nc1ccc(Cc2ccncc2)cc1 [Example 30, 1-{(Z)-[4-(4-Pyridinylmethyl)anilino]methylidene}-1,3-dihydro-2H-pyrrolo[3,2-f]quinolin-2-one] | 6.30 to 8.00 | < 7.00 | – | 5.30 to 5.96 | 7.30 to 7.96 | < 7.00 | 7.30 to 7.96 | –
O=C1Nc2ccc3ncccc3c2/C1=C/Nc1ccc(CCO)cc1 [Example 32, 1-{(Z)-[4-(2-Hydroxyethyl)anilino]methylidene}-1,3-dihydro-2H-pyrrolo[3,2-f]quinolin-2-one] | 6.30 to 8.00 | – | – | 5.30 to 5.96 | 7.00 to 7.29 | < 7.00 | 7.30 to 7.96 | –
CCC1(c2ccc(N/C=C3\C(=O)Nc4ccc5ncsc5c43)cc2)CCC(=O)NC1=O (stereo not drawn) [Example 48, 3-Ethyl-3-(4-{(Z)-[(7-oxo-6,7dihydro-8H-[1,3]thiazolo[5,4-e]indol-8-ylidene)methyl]amino}phenyl)-2,6-piperidinedione] | 6.30 to 8.00 | < 7.00 | – | 6.00 to 6.22 | – | < 7.00 | 8.00 to 9.00 | –
Cc1cc(=O)[nH]n1-c1ccc(N/C=C2\C(=O)Nc3ccc4ncsc4c32)cc1 [Example 55, 8-{(Z)-[4-(5-Methyl-3-oxo-2,3-dihydro-1H-pyrazol-1-yl)anilino]methylidene}-6H-[1,3]thiazolo[5,4-e]indol-7-one] | 5.30 to 5.96 | < 7.00 | – | < 5.30 | 7.30 to 7.96 | < 7.00 | 8.00 to 9.00 | –
CC(=O)N(C)c1ccc(N/C=C2\C(=O)Nc3ccc4ncsc4c32)cc1 [Example 58, N-Methyl-N-(4-{(Z)-[(7-oxo-6,7-dihydro-8H-[1,3]thiazolo[5,4-e]indol-8-ylidene)methyl]amino}phenyl)acetamide] | 6.30 to 8.00 | – | – | 5.30 to 5.96 | – | < 7.00 | 7.30 to 7.96 | –
CCC1(c2ccc(N/C=C3\C(=O)Nc4ccc5ncccc5c43)cc2)CCC(=O)NC1=O (stereo not drawn) [Example 63, 3-Ethyl-3-(4-{(Z)-[(2-oxo-2,3dihydro-1H-pyrrolo[3,2-f]quinolin-1-ylidene)methyl]amino}phenyl)-2,6-piperidinedione] | 6.30 to 8.00 | – | – | 6.00 to 6.22 | – | < 7.00 | 8.00 to 9.00 | –
Cc1cc(=O)[nH]n1-c1ccc(N/C=C2\C(=O)Nc3ccc4ncccc4c32)cc1 [Example 66, 1-{(Z)-[4-(5-Methyl-3-oxo-2,3-dihydro-1H-pyrazol-1-yl)anilino]methylidene}-1H-pyrrolo[3,2-f]quinolin-2(3H)-one] | 6.00 to 6.22 | – | – | < 5.30 | – | < 7.00 | 8.00 to 9.00 | –
CCN(CC)CCS(=O)(=O)c1ccc(N/C=C2\C(=O)Nc3ccc4ncsc4c32)cc1 [Example 71, 8-[(Z)-(4-{[2-(Diethylamino)ethyl]sulfonyl}anilino)methylidene]-6H-[1,3]thiazolo[5,4-e]indol-7-one] | 6.30 to 8.00 | – | – | 6.30 to 8.00 | – | < 7.00 | 7.30 to 7.96 | –
CCN(CC)CCS(=O)(=O)c1ccc(N/C=C2\C(=O)Nc3ccc4ncccc4c32)cc1 [Example 72, 1-[(Z)-(4-{[2-(Diethylamino)ethyl]sulfonyl}anilino)methylidene]-1H-pyrrolo[3,2-f]quinolin-2(3H)-one] | 6.30 to 8.00 | – | 8.00 to 9.00 | 6.30 to 8.00 | – | – | – | < 7.00

— patent US6350747B1, “3-(anilinomethylene) oxindoles” (Glaxo Wellcome Inc., priority 1999, dated 2002)
